We go through 13 molecules from US12180193B2, “Accelerating fibrosarcoma protein degrading compounds and associated methods of use” (Arvinas Operations, Inc., priority 2020, dated 2024).

Some results are limits rather than exact numbers.

One assay has as its target T1, BRAF V600E (Homo sapiens, UniProt P15056, V600E).
T1 construct: expressed in transfected cells
Nature of the assay: Cellular assay of target protein degradation, T-Rex 293 cells stably transfected with HA-BRAF_V600E (HA immunofluorescence, high content imaging). The following applies: T-Rex 293 HA-BRAF V600E; for DC50: half maximal degradation, read-out: BRaf V600E DC50; for Dmax: maximum degradation observed. The class given is cell-based. Put shortly: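 Doxycycline-induced (1 ng/mL) T-Rex 293 cells expressing HA-BRAF V600E treated 24 h at 37 °C with compound at 1 μM to 0.1 nM final in 0.1% DMSO. Remaining HA-tagged protein quantified by fixed-cell anti-HA immunofluorescence and high-content imaging; DC50 and Dmax (% of control) derived.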

For a further assay, the target named is T2, BRAF G466V (Homo sapiens, UniProt P15056, G466V).
T2 construct: expressed in transfected cells
Nature of the assay: Cellular assay of target protein degradation, T-Rex 293 cells stably transfected with HA-BRAF G466V (HA immunofluorescence, high content imaging). The format is cell-based. Conditions: T-Rex 293 HA-BRAF G466V; for DC50: half maximal degradation, read-out: BRaf G466V DC50; for Dmax: maximum degradation observed. A digest of the protocol: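 Doxycycline-induced (0.75 ng/mL) cells treated 24 h at 37 °C with compound from 30 nM to 3 pM (0.1% DMSO). After fixation and permeabilisation, HA-tagged BRAF G466V immunostained and quantified by high-content imaging. DC50 and Dmax (percent of control) derived.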

T1 sequence (P15056 whole entry V600E): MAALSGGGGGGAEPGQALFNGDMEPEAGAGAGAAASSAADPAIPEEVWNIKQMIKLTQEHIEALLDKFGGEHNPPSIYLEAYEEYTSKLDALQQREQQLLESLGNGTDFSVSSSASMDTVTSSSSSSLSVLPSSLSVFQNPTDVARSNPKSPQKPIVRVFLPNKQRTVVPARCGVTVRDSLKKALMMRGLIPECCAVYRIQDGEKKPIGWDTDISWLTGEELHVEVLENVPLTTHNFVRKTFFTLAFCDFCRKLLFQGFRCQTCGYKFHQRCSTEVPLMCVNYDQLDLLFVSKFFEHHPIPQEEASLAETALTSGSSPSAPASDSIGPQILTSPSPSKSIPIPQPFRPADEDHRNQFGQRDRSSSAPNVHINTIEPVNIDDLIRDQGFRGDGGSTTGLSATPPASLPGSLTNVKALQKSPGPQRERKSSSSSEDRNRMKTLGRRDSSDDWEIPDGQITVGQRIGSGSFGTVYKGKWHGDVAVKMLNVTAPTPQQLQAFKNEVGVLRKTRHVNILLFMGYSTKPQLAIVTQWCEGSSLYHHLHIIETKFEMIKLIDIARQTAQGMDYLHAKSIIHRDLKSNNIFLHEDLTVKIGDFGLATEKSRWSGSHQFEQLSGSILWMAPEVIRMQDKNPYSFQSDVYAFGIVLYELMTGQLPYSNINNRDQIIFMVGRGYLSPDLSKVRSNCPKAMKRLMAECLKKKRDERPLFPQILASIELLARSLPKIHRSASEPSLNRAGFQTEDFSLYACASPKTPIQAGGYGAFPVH
T2 sequence (P15056 whole entry G466V): as the sequence (P15056 whole entry V600E) above, with G466V, E600V counted along it

As for `O=C1CCN(c2ccc(C3CCN(CC4CCN(c5ccc(-c6cnc7[nH]cc(C(=O)c8c(F)ccc(NS(=O)(=O)N9CC[C@@H](F)C9)c8F)c7c6)cc5)CC4)CC3)cc2F)C(=O)N1` [Compound 140, (3R)-N-[3-(5-{4-[4-({4-[4-(2,4-dioxo-1,3-diazinan-1-yl)-3-fluorophenyl]piperidin-1-yl}methyl)piperidin-1-yl]phenyl}-1H-pyrrolo[2,3-b]pyridine-3-carbonyl)-2,4-difluorophenyl]-3-fluoropyrrolidine-1-sulfonamide], on BRAF V600E, the DC50 (as a rule, the midpoint of the concentration-degradation curve) is 5 to 50 nM and the Dmax (usually the greatest extent of degradation seen) lay within 35 to 70%. Moreover, at BRAF G466V, the DC50 was less than 1 nM and the Dmax was 35 to 70%.
As to `O=C1CCC(N2Cc3cc(CCCN4CC5(C4)CN(c4ccc(-c6cnc7[nH]cc(C(=O)c8c(F)ccc(NS(=O)(=O)N9CC[C@@H](F)C9)c8F)c7c6)cn4)C5)ccc3C2=O)C(=O)N1` (stereo partly drawn) [Compound 141, (3R)-N-(3-{5-[6-(6-{3-[2-(2,6-dioxopiperidin-3-yl)-1-oxo-2,3-dihydro-1H-isoindol-5-yl]propyl}-2,6-diazaspiro[3.3]heptan-2-yl)pyridin-3-yl]-1H-pyrrolo[2,3-b]pyridine-3-carbonyl}-2,4-difluorophenyl)-3-fluoropyrrolidine-1-sulfonamide], the DC50 on BRAF V600E is 5 to 50 nM; on BRAF G466V, 1 to 10 nM. Further, the greatest degradation seen (Dmax) is 35 to 70% on BRAF V600E and more than 70% at BRAF G466V.
As to `O=C1CCC(N2Cc3cc(N4CCC(O)(CN5CC6(C5)CN(c5ccc(-c7cnc8[nH]cc(C(=O)c9c(F)ccc(NS(=O)(=O)N%10CC[C@@H](F)C%10)c9F)c8c7)cc5)C6)CC4)ccc3C2=O)C(=O)N1` (stereo partly drawn) [Compound 142, (3R)—N-[3-[5-[4-[6-[[1-[2-(2,6-dioxo-3-piperidyl)-1-oxo-isoindolin-5-yl]-4-hydroxy-4-piperidyl]methyl]-2,6-diazaspiro[3.3]heptan-2-yl]phenyl]-1H-pyrrolo[2,3-b]pyridine-3-carbonyl]-2,4-difluoro-phenyl]-3-fluoro-pyrrolidine-1-sulfonamide], at BRAF V600E, the half-maximal degradation concentration (DC50) fell in the range of 5 to 50 nM and the greatest degradation seen (Dmax) lay in the range of 35 to 70%. Besides, on BRAF G466V, the 50% degradation concentration (DC50) fell in the range of 1 to 10 nM and the Dmax was more than 70%.
Regarding `O=C1CCC(N2Cc3cc(N4CCC(COCC5CCN(c6ccc(-c7cnc8[nH]cc(C(=O)c9c(F)ccc(NS(=O)(=O)N%10CC[C@@H](F)C%10)c9F)c8c7)cc6)CC5)CC4)ccc3C2=O)C(=O)N1` (stereo partly drawn) [Compound 143, (3R)-N-{3-[5-(4-{4-[({1-[2-(2,6-dioxopiperidin-3-yl)-1-oxo-2,3-dihydro-1H-isoindol-5-yl]piperidin-4-yl}methoxy)methyl]piperidin-1-yl}phenyl)-1H-pyrrolo[2,3-b]pyridine-3-carbonyl]-2,4-difluorophenyl}-3-fluoropyrrolidine-1-sulfonamide], on BRAF V600E, the DC50 is 5 to 50 nM and the greatest degradation seen (Dmax) is less than 35%. Moreover, at BRAF G466V, the DC50 lay in the range of 10 to 30 nM and the Dmax was in the range of 35 to 70%.
Turning to `O=C1CCC(N2Cc3cc(N4CCC(N5CCN(CC6CN(c7ccc(-c8cnc9[nH]cc(C(=O)c%10c(F)ccc(NS(=O)(=O)N%11CC[C@@H](F)C%11)c%10F)c9c8)cc7)C6)CC5)CC4)ccc3C2=O)C(=O)N1` (stereo partly drawn) [Compound 144, (3R)-N-{3-[5-(4-{3-[(4-{1-[2-(2,6-dioxopiperidin-3-yl)-1-oxo-2,3-dihydro-1H-isoindol-5-yl]piperidin-4-yl}piperazin-1-yl)methyl]azetidin-1-yl}phenyl)-1H-pyrrolo[2,3-b]pyridine-3-carbonyl]-2,4-difluorophenyl}-3-fluoropyrrolidine-1-sulfonamide], the 50% degradation concentration (DC50) on BRAF V600E was less than 5 nM; on BRAF G466V, 1 to 10 nM. Moreover, the figures for the Dmax at BRAF V600E and at BRAF G466V were 35 to 70% and more than 70%, respectively.
As to `CN(CCN1CCN(c2ccc3c(c2)CN(C2CCC(=O)NC2=O)C3=O)CC1)[C@H]1CC[C@H](Oc2ccc(-c3cnc4[nH]cc(C(=O)c5c(F)ccc(NS(=O)(=O)N6CC[C@@H](F)C6)c5F)c4c3)cc2)CC1` (stereo partly drawn) [Compound 145, (3R)-N-{2,4-difluoro-3-[5-(4-{[(1r,4r)-4-[(2-{4-[2-(2,6-dioxopiperidin-3-yl)-1-oxo-2,3-dihydro-1H-isoindol-5-yl]piperazin-1-yl}ethyl)(methyl)amino]cyclohexyl]oxy}phenyl)-1H-pyrrolo[2,3-b]pyridine-3-carbonyl]phenyl}-3-fluoropyrrolidine-1-sulfonamide], on BRAF V600E, the DC50 was 5 to 50 nM and the Dmax lay within 35 to 70%. In addition, at BRAF G466V, the half-maximal degradation concentration (DC50) lay in the range of 1 to 10 nM and the maximal degradation (Dmax) was more than 70%.
As to `O=C1CCC(N2Cc3cc(N4CCC(CN5CCN(Cc6ccc(-c7cnc8[nH]cc(C(=O)c9c(F)ccc(NS(=O)(=O)N%10CC[C@@H](F)C%10)c9F)c8c7)cc6)CC5)CC4)ccc3C2=O)C(=O)N1` (stereo partly drawn) [Compound 146, (3R)-N-{3-[5-(4-{[4-({1-[2-(2,6-dioxopiperidin-3-yl)-1-oxo-2,3-dihydro-1H-isoindol-5-yl]piperidin-4-yl}methyl)piperazin-1-yl]methyl}phenyl)-1H-pyrrolo[2,3-b]pyridine-3-carbonyl]-2,4-difluorophenyl}-3-fluoropyrrolidine-1-sulfonamide], the DC50 at BRAF V600E was in the range of 5 to 50 nM; on BRAF G466V it was 1 to 10 nM. Moreover, the Dmax was 35 to 70% at BRAF V600E and more than 70% at BRAF G466V.
In the same order, the values of `O=C1CCC(N2Cc3cc(CCCN4CC5(C4)CN(c4ncc(-c6cnc7[nH]cc(C(=O)c8c(F)ccc(NS(=O)(=O)N9CC[C@@H](F)C9)c8F)c7c6)cn4)C5)ccc3C2=O)C(=O)N1` (stereo partly drawn) [Compound 147, (3R)-N-(3-{5-[2-(6-{3-[2-(2,6-dioxopiperidin-3-yl)-1-oxo-2,3-dihydro-1H-isoindol-5-yl]propyl}-2,6-diazaspiro[3.3]heptan-2-yl)pyrimidin-5-yl]-1H-pyrrolo[2,3-b]pyridine-3-carbonyl}-2,4-difluorophenyl)-3-fluoropyrrolidine-1-sulfonamide] are 50 to 500 nM, 1 to 10 nM, 35 to 70% and 35 to 70%.
In the case of `O=C1CCC(N2Cc3cc(CCOCCN4CCN(c5ccc(-c6cnc7[nH]cc(C(=O)c8c(F)ccc(NS(=O)(=O)N9CC[C@@H](F)C9)c8F)c7c6)cc5)CC4)ccc3C2=O)C(=O)N1` (stereo partly drawn) [Compound 148, (3R)-N-[3-(5-{4-[4-(2-{2-[2-(2,6-dioxopiperidin-3-yl)-1-oxo-2,3-dihydro-1H-isoindol-5-yl]ethoxy}ethyl)piperazin-1-yl]phenyl}-1H-pyrrolo[2,3-b]pyridine-3-carbonyl)-2,4-difluorophenyl]-3-fluoropyrrolidine-1-sulfonamide], on BRAF V600E, the 50% degradation concentration (DC50) lay within 5 to 50 nM and the greatest degradation seen (Dmax) lay within 35 to 70%. For the same molecule, at BRAF G466V, the DC50 lay in the range of 1 to 10 nM and the Dmax was more than 70%.
Take `O=C1CCC(N2Cc3cc(C4CCN(CCc5ccc(-c6cnc7[nH]cc(C(=O)c8c(F)ccc(NS(=O)(=O)N9CC[C@@H](F)C9)c8F)c7c6)cc5)[C@H](CO)C4)ccc3C2=O)C(=O)N1` (stereo partly drawn) [Compound 149, (3R)-N-{3-[5-(4-{2-[(2S)-4-[2-(2,6-dioxopiperidin-3-yl)-1-oxo-2,3-dihydro-1H-isoindol-5-yl]-2-(hydroxymethyl)piperidin-1-yl]ethyl}phenyl)-1H-pyrrolo[2,3-b]pyridine-3-carbonyl]-2,4-difluorophenyl}-3-fluoropyrrolidine-1-sulfonamide]: the results for the DC50 at BRAF V600E and at BRAF G466V were 50 to 500 nM and 1 to 10 nM, respectively. For the same molecule, the maximal degradation (Dmax) on BRAF V600E was 35 to 70%; on BRAF G466V it was more than 70%.
In the same order, the values of `O=C1CCC(N2Cc3cc(C4CCN(CCc5ccc(-c6cnc7[nH]cc(C(=O)c8c(F)ccc(NS(=O)(=O)N9CC[C@@H](F)C9)c8F)c7c6)cc5)[C@@H](CO)C4)ccc3C2=O)C(=O)N1` (stereo partly drawn) [Compound 150, (3R)-N-{3-[5-(4-{2-[(2R)-4-[2-(2,6-dioxopiperidin-3-yl)-1-oxo-2,3-dihydro-1H-isoindol-5-yl]-2-(hydroxymethyl)piperidin-1-yl]ethyl}phenyl)-1H-pyrrolo[2,3-b]pyridine-3-carbonyl]-2,4-difluorophenyl}-3-fluoropyrrolidine-1-sulfonamide] are 50 to 500 nM, 1 to 10 nM, 35 to 70% and more than 70%.
In the same order, the values of `O=C1CCC(N2Cc3cc(CCOCCN4CCC(c5ccc(-c6cnc7[nH]cc(C(=O)c8c(F)ccc(NS(=O)(=O)N9CC[C@@H](F)C9)c8F)c7c6)cc5)CC4)ccc3C2=O)C(=O)N1` (stereo partly drawn) [Compound 151, (3R)-N-[3-(5-{4-[1-(2-{2-[2-(2,6-dioxopiperidin-3-yl)-1-oxo-2,3-dihydro-1H-isoindol-5-yl]ethoxy}ethyl)piperidin-4-yl]phenyl}-1H-pyrrolo[2,3-b]pyridine-3-carbonyl)-2,4-difluorophenyl]-3-fluoropyrrolidine-1-sulfonamide] are 50 to 500 nM, 1 to 10 nM, 35 to 70% and more than 70%.
On to `O=C1CCC(N2Cc3cc(N4CCN(CCc5ccc(-c6cnc7[nH]cc(C(=O)c8c(F)ccc(NS(=O)(=O)N9CC[C@@H](F)C9)c8F)c7c6)cc5)CC4)c(F)cc3C2=O)C(=O)N1` (stereo partly drawn) [Compound 152, (3R)-N-(3-{5-[4-(2-{4-[2-(2,6-dioxopiperidin-3-yl)-6-fluoro-1-oxo-2,3-dihydro-1H-isoindol-5-yl]piperazin-1-yl}ethyl)phenyl]-1H-pyrrolo[2,3-b]pyridine-3-carbonyl}-2,4-difluorophenyl)-3-fluoropyrrolidine-1-sulfonamide], for which, at BRAF V600E, the DC50 was 5 to 50 nM and the maximal degradation (Dmax) was in the range of 35 to 70%. Further, on BRAF G466V, the half-maximal degradation concentration (DC50) is 1 to 10 nM and the Dmax is more than 70%.
